The subject of data set [1] is Porcine Smooth Muscle Cell. Kind of data set: Cytotoxicity, MTT assay. As to conditions: up to 100 µg/mL; 24 h, medium without serum. It counts as cell-based. How it is done: Briefly, cells were again grown in 24 well plates to 70 - 80 % confluency and, as before, serum deprived for 24 - 48 h prior to initiation of the experimental protocol. To insure that the MTT assay monitored toxicity rather than proliferation, cells were incubated with 100 µg/mL of drug in fresh medium without serum for 24 h at 37 °C in a humidified CO2 incubator. Upon completion of the compound treatment, MTT (3-[4,5-dimethylthiazol-2-yl]-2,5-diphenyltetrazolium bromide) indicator dye was added for 4 h at 37 °C. Cells were then lysed and aliquots from each well were transferred to a 96 well plate for analysis. Absorbance at 570 nm wavelength with a reference wavelength of 630 nm was recorded using an ELISA plate reader. Results were determined as percent viable using no drug (100% viable) and pre-solubilization (0% viable) standards.

Data set [2] deals with normal human plasma. Kind of data set: Anticoagulant activity, partial thromboplastin time (APTT) assay. The data set is classed as biochemical. The following applies: human citrated plasma. How it is done: The anticlotting activity of the compounds of this invention was evaluated in a partial thromboplastin time (APTT) assay using normal human plasma collected from 5 donors according to the procedure of Fenichel et. al. (Clin. Chem. 1964, 10, 69). A BBL Fibrometer automatic precision coagulation timer utilizing a 0.3 mL probe was employed. An Ellagic acid activated partial thromboplastin was used for these experiments. This reagent was added to human citrated plasma equilibrated at 37 °C in a plastic well in the clot timer. Calcium at 37 °C was added, the clot timer was started and the time for fibrin clot formation (in seconds) was recorded. The effect of the compounds, added to plasma, over a concentration of 12.5 - 200 µg/mL was determined. […] An unfractionated heparin comparator was used over the concentration range of 1.25 - 10 µg/mL. Clotting tests at all concentrations were run in triplicate. Analysis of variance for a randomized block design was used to determine the significance of differences observed in the clotting times. […]

`CC(=O)OC[C@H]1O[C@H](O[C@H]2[C@H](OC(C)=O)[C@@H](OC(C)=O)[C@H](OCc3ccc(C)c(NS(=O)(=O)c4ccc(NS(C)(=O)=O)cc4)c3)O[C@@H]2COC(C)=O)[C@H](OC(C)=O)[C@@H](OC(C)=O)[C@@H]1OC(C)=O` [Example 17, N-[5-(Hepta-O-acetyl-β-D-maltosyloxymethyl)-2-methylphenyl]-4-(methanesulfonylamino)benzenesulfonamide]: the “toxicity (MTT, percent viable)” value in data set [1] is on record as “no toxicity”. Also, the “anticoagulant activity (APTT assay)” value in data set [2] is given as “no anticoagulant activity”.
For `CCCCC(=O)Nc1cc(CO[C@@H]2O[C@H](COC(C)=O)[C@@H](O[C@H]3O[C@H](COC(C)=O)[C@@H](OC(C)=O)[C@H](OC(C)=O)[C@H]3OC(C)=O)[C@H](OC(C)=O)[C@H]2OC(C)=O)ccc1C` [Example 12, Pentanoic Acid N-[5-(Hepta-O-acetyl-β-D-maltosyloxymethyl)-2-methylphenyl]amide], the “toxicity (MTT, percent viable)” value in data set [1] was “no toxicity”. For the same compound, the “anticoagulant activity (APTT assay)” value in data set [2] is “no anticoagulant activity”.
On to `CCC(=O)Nc1cc(CO[C@@H]2O[C@H](COC(C)=O)[C@@H](O[C@H]3O[C@H](COC(C)=O)[C@@H](OC(C)=O)[C@H](OC(C)=O)[C@H]3OC(C)=O)[C@H](OC(C)=O)[C@H]2OC(C)=O)ccc1C` [Example 11, N-[5-(Hepta-O-acetyl-β-D-maltosyloxymethyl)-2-methylphenyl]propionamide], for which the “toxicity (MTT, percent viable)” value in data set [1] is given as “no toxicity”. Moreover, the “anticoagulant activity (APTT assay)” value in data set [2] was “no anticoagulant activity”.

Source of the values: EP0791004B1, “ACYLATED BENZYLGLYCOSIDES AS INHIBITORS OF SMOOTH MUSCLE CELL PROLIFERATION” (AMERICAN HOME PRODUCTS CORPORATION, priority 1994, dated 1996).
